Laboratory results as given in US8158621B2, “Methods of treating or preventing autoimmune diseases with 2,4-pyrimidinediamine compounds” (Rigel Pharmaceuticals, Inc., priority 2002, dated 2012).
Like-named read-outs stand apart in the source and are kept apart here.

Tested on: Human Jurkat T-cells (clone N)
Experiment: Jurkat T-cell activation (anti-TCR, CD69 upregulation)
Format: cell-based
Method in brief: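 Readout is CD69 upregulation by flow cytometry (anti-CD69-APC, 20 min at 4 °C) after 20 h anti-TCR (C305, 500 ng/ml) stimulation at 37 °C.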

Row | IC50 [µM] | IC50 (Homo sapiens, Jurkat) [µM] | Structure (SMILES) | also measured
1 | 16.2 |  | COC(=O)COc1cccc(Nc2ncc(F)c(Nc3cc(C)c(O)c(Cl)c3)n2)c1 [Compound R945148] | 
2 | > 10 |  | Nc1cccc(Nc2nc(Nc3cccc(NC(=O)CCC(C(=O)O)N4C(=O)c5ccccc5C4=O)c3)ncc2F)c1 (racemic) [Compound R950251] | 
3 | 2.08 |  | CNCCNC(=O)CNc1cccc(Nc2ncc(F)c(Nc3ccc4c(c3)OCCO4)n2)c1 [Compound R950196] | 
4 | > 10 |  | COC(=O)COc1cccc(Nc2ncc(F)c(Nc3ccc(OC(C)C)cc3)n2)c1 [Compound R945125] | 
5 | > 10 |  | CNCCNC(=O)CNc1cccc(Nc2ncc(F)c(Nc3cccc(NCCO)c3)n2)c1 [Compound R950234] | 
6 |  | > 10 | CC(Nc1nc(Nc2cccc(O)c2)ncc1F)c1ccc(F)cc1 (racemic) [Compound R935021] | 
7 |  | > 10 | Oc1cccc(Nc2cc(Cl)nc(Nc3cccc(O)c3)n2)c1 [Compound R926408] | 
8 | 19.8 |  | FC(F)(F)c1cnc(Nc2ccc3c(c2)OCCO3)nc1Nc1ccc2c(c1)OCCO2 [Compound R920669] | 
9 | 7.96 |  | COC(=O)Cn1ncc2ccc(Nc3ncc(F)c(Nc4cccc(O)c4)n3)cc21 [Compound R935215] | 
10 | > 10 |  | COC(=O)COc1ccc(Nc2nc(Nc3ccc(OCC#N)cc3)ncc2F)cc1 [Compound R945062] | 
11 |  | 3.28 | Oc1cccc(Nc2nc(Nc3cccc(-c4cc[nH]n4)c3)ncc2F)c1 [Compound R926841] | 
12 | 21.3 |  | CCOC(=O)COc1ccc(Nc2ncc(-c3nn[nH]n3)c(Nc3ccc(OCC(=O)OCC)cc3)n2)cc1 [Compound R925810] | 
13 |  | > 10 | Oc1cccc(Nc2cc(-c3ccccc3)nc(Nc3cccc(O)c3)n2)c1 [Compound R925812] | 
14 |  | 6.88 | Cc1ccc(Nc2ncc(F)c(Nc3ccc(C)c(N)c3)n2)cc1N [Compound R950129] | 
15 | > 10 |  | CCOC(=O)C(C)(Oc1cccc(Nc2nc(Nc3ccc(OC(C)C)cc3)ncc2F)c1)C(=O)OCC [Compound R935187] | 
16 | 1.34 |  | OCCCn1ncc2ccc(Nc3ncc(F)c(Nc4cccc(O)c4)n3)cc21 [Compound R935293] | 
17 | 5.98 |  | OCCOc1cccc(Nc2ncc(CO)c(Nc3cccc(O)c3)n2)c1 [Compound R926735] | 
18 | > 10 |  | CNC(=O)COc1cccc(Nc2ncc(F)c(Nc3ccc4c(c3)CNCC4)n2)c1 [Compound R926914] | 
19 | > 10 |  | CCOC(=O)COc1cccc(Nc2nc(Nc3cccc(C(C)(C)C)c3)ncc2F)c1 [Compound R940266] | 
20 |  | > 10 | COCCNc1ncc(F)c(Nc2ccc3c(c2)OCCO3)n1 [Compound R926229] | 
21 |  | 4.64 | COC(=O)c1cc(N)cc(Nc2ccnc(Nc3cc(N)cc(C(=O)OC)c3)n2)c1 [Compound R950132] | 
22 |  | 3.54 | Oc1cccc(Nc2cc(Nc3cccc(O)c3)nc(Nc3cccc(O)c3)n2)c1 [Compound R926409] | 
23 | 4.08 |  | CNC(=O)COc1ccc(Nc2ncc(F)c(Nc3ccc4c(c3)OCCCO4)n2)cc1 [Compound R935184] | 
24 |  | > 10 | c1ccc(-c2cc(Nc3ccc4c(c3)OCCO4)nc(Nc3ccc4c(c3)OCCO4)n2)cc1 [Compound R925811] | 
25 | 14.5 |  | OB(O)c1cccc(Nc2ncc(F)c(Nc3cccc(B(O)O)c3)n2)c1 [Compound R926836] | 

Row | IC50 [µM] | IC50 (Homo sapiens, Jurkat) [µM] | Structure (SMILES) | also measured
26 | > 10 |  | CNC(=O)Cn1ncc2cc(Nc3ncc(F)c(Nc4ccc5c(cnn5CC(=O)NC)c4)n3)ccc21 [Compound R935217] | 
27 |  | > 10 | CC(C)(C)OC(=O)Nc1cccc(Nc2ncc(F)c(Nc3cccc(NC(=O)OC(C)(C)C)c3)n2)c1 [Compound R950108] | 
28 |  | 7.63 | Oc1ccc(Nc2ncc(F)c(Nc3ccc(O)cc3F)n2)c(F)c1 [Compound R926683] | 
29 |  | > 10 | Fc1cnc(Nc2ccc(Cl)c(C(F)(F)F)c2)nc1Nc1ccc(Cl)c(C(F)(F)F)c1 [Compound R926039] | 
30 |  | > 10 | COc1cc(Nc2ncc(F)c(Nc3cccc(O)c3)n2)c(OC)cc1Cl [Compound R926857] | 
31 | 5.89 |  | COC(=O)c1ccc(Cn2cc3ccc(Nc4ncc(F)c(Nc5ccc(OC(C)C)cc5)n4)cc3n2)c(OC)c1 [Compound R935338] | 
32 |  | 5.59 | Oc1cccc(Nc2nc(Nc3ccc4cc[nH]c4c3)ncc2F)c1 [Compound R926751] | 
33 | 1.36 |  | CNC(=O)COc1cccc(Nc2ncc(F)c(Nc3ccc4cc(C(=O)OC)[nH]c4c3)n2)c1 [Compound R926904] | 
34 | 8.26 |  | CCOC(=O)COc1cccc(Nc2ncc(F)c(Nc3ccc4c(c3)OCCO4)n2)c1 [Compound R926482] | 
35 |  |  | O=[N+]([O-])c1cc(Nc2ccnc(Nc3ccc(Cl)c([N+](=O)[O-])c3)n2)ccc1Cl [Compound R950154] | IC50 (Homo sapiens): > 10 µM
36 | 0.46 |  | Oc1cccc(Nc2ncc(F)c(Nc3ccc(OCc4nc(-c5ccccc5)no4)cc3)n2)c1 [Compound R935138] | 
37 | 9.14 |  | Cc1nc(COc2cccc(Nc3nc(Nc4ccc(OCC(N)=O)cc4)ncc3F)c2)no1 [Compound R945133] | 
38 | 10.7 |  | NCCNC(=O)c1cc2cc(Nc3ncc(F)c(Nc4ccc5oc(C(=O)NCCN)cc5c4)n3)ccc2o1 [Compound R950168] | 
39 |  | 3.04 | OCCOc1cccc(Nc2ncc(F)c(Nc3ccc4oc(CO)cc4c3)n2)c1 [Compound R935178] | 
40 | 3.28 |  | Cn1nnnc1COc1ccc(Nc2ncc(F)c(Nc3cccc(O)c3)n2)cc1 [Compound R920861] | 
41 | > 10 |  | Cc1nc(COc2cccc(Nc3nc(Nc4ccc(OC(C)C)cc4)ncc3F)c2)no1 [Compound R945138] | 
42 |  | 0.703 | COc1cc(Nc2ncc(F)c(Nc3ccc4c(c3)OCCO4)n2)cc(OC)c1OC [Compound R926762] | 
43 | 13.1 |  | COC(=O)COc1cc(Nc2ncc(F)c(Nc3cccc(O)c3)n2)cc(OCC(=O)OC)c1 [Compound R926926] | 
44 | 2.77 |  | CN1CCN(C(=O)CNc2cccc(Nc3ncc(F)c(Nc4cccc(O)c4)n3)c2)CC1 [Compound R950223] | 
45 | 3.8 |  | CCOC(=O)COc1cccc(Nc2ncc(F)c(Nc3ccc4c(c3)NCCO4)n2)c1 [Compound R909242] | 
46 |  |  | Fc1cnc(Nc2ccc3cc[nH]c3c2)nc1Nc1ccc2cc[nH]c2c1 [Compound R926594] | IC50 (Homo sapiens): 1.25 µM
47 |  | > 10 | COC(=O)C1Cc2cc(N(c3ccc(C(C)(C)C)cc3)c3ncc(F)c(N)n3)ccc2O1 (centres unmarked) [Compound R926719] | 
48 | 1.95 |  | CNC(=O)COc1cccc(Nc2ncc(F)c(Nc3ccc(OCCC(=O)OC)cc3)n2)c1 [Compound R950346] | 
49 |  | > 10 | Oc1cccc(Nc2nc(NCc3ccc4c(c3)OCCO4)ncc2F)c1 [Compound R945168] | 
50 |  | > 10 | Cc1cnc(Nc2ccccc2-c2ccccc2)nc1Nc1ccccc1-c1ccccc1 [Compound R926404] | 

Row | IC50 [µM] | IC50 (Homo sapiens, Jurkat) [µM] | Structure (SMILES) | also measured
51 |  |  | Cc1ccc([N+](=O)[O-])cc1Nc1ncc(F)c(Nc2cc([N+](=O)[O-])ccc2C)n1 [Compound R950146] | IC50 (Homo sapiens): > 10 µM
52 | 0.779 |  | CNC(=O)CCn1ncc2cc(Nc3ncc(F)c(Nc4ccc5c(c4)OCCO5)n3)ccc21 [Compound R935309] | 
53 |  | 2.68 | OCc1cc2cc(Nc3ncc(F)c(Nc4cccc(O)c4)n3)ccc2o1 [Compound R926707] | 
54 | 10.5 |  | O=[N+]([O-])c1cccc(Nc2nc(Nc3ccc4c(c3)NCCO4)ncc2F)c1 [Compound R950253] | 
55 |  | > 10 | CCOC1CCCc2ccc(Nc3nc(Nc4cccc(O)c4)ncc3F)cc21 (centres unmarked) [Compound R926942] | 
56 | 10.7 |  | CNC(=O)COc1cccc(Nc2ncc(F)c(Nc3ccc(F)c(C(F)(F)F)c3)n2)c1 [Compound R926838] | 
57 | > 10 |  | N#CCOc1ccc(Nc2nc(Nc3ccc(OCC(=O)O)cc3)ncc2F)cc1 [Compound R945097] | 
58 | 11 |  | CC(C)Oc1ccc(Nc2ncc(F)c(Nc3ccc(OCc4nc(-c5ccccc5)no4)cc3)n2)cc1 [Compound R935139] | 
59 | > 10 |  | CNC(=O)COc1cccc(Nc2ncc(F)c(Nc3ccc4c(c3)N(C)CCO4)n2)c1 [Compound R909259] | 
60 |  | 7.07 | CC(C)(CO)c1ccc(Nc2ncc(F)c(Nc3cccc(O)c3)n2)cc1 [Compound R935153] | 
61 |  | > 10 | Oc1cccc(Nc2ncc(F)c(Nc3ccc4ncccc4c3)n2)c1 [Compound R927019] | 
62 | 6.24 |  | CNC(=O)COc1cccc(Nc2ncc(F)c(Nc3ccc(C(F)(F)F)cc3)n2)c1 [Compound R926880] | 
63 |  | > 10 | CCOc1ccc(Nc2cc(C(=O)OC)nc(Nc3ccc(OCC)cc3)n2)cc1 [Compound R926058] | 
64 |  | > 10 | Oc1cccc(Nc2ncc(F)c(Nc3cccc(C4=NN(c5ccccc5)CO4)c3)n2)c1 [Compound R926866] | 
65 | 1.91 |  | CNC(=O)COc1cccc(Nc2ncc(F)c(Nc3cccc(N)c3)n2)c1 [Compound R950263] | 
66 | 13 |  | CCOC(=O)C(C)Oc1ccc(Nc2ncc(C)c(Nc3ccc(OC(C)C(=O)OCC)cc3)n2)cc1 (racemic) [Compound R926259] | 
67 | 4.11 |  | COC(=O)COc1cccc(Nc2ncc(F)c(Nc3ccc4c(c3)OCCCO4)n2)c1 [Compound R935185] | 
68 | > 10 |  | C[C@H](Nc1nc(Nc2ccc3c(c2)OCCO3)ncc1F)[C@H](O)c1ccccc1 [Compound R925766] | 
69 |  | 3.46 | Fc1cnc(Nc2ccc3c(c2)OCCO3)nc1NCc1csc2ccc(Cl)cc12 [Compound R926721] | 
70 |  | > 10 | COc1ccc(Nc2nc(Nc3cccc(O)c3)ncc2F)cc1OC [Compound R926147] | 
71 | > 10 |  | Fc1cnc(Nc2ccc3cn[nH]c3c2)nc1Nc1ccc(OC(F)(F)F)c(Cl)c1 [Compound R935368] | 
72 |  | > 10 | Fc1cnc(Nc2ccc(N3CCN(Cc4ccccc4)CC3)cc2)nc1Nc1ccc(N2CCN(Cc3ccccc3)CC2)cc1 [Compound R945152] | 
73 | > 10 |  | Fc1cnc(Nc2cccc(C(F)(F)F)c2)nc1Nc1ccc2c(c1)OCCO2 [Compound R926805] | 
74 | > 10 |  | CC1(C)CN(c2ccccn2)c2cc(Nc3nc(Cl)ncc3F)ccc2O1 [Compound R940336] | 
75 |  | > 10 | Fc1ccc(Nc2ncc(F)c(Nc3ccc(F)cc3)n2)cc1 [Compound R926224] | 

Row | Structure (SMILES) | IC50 [µM] | IC50 (Homo sapiens, Jurkat) [µM] | also measured
76 | O=C(c1cc2cc(Nc3ncc(F)c(Nc4ccc5c(c4)OCCO5)n3)ccc2o1)N1CCNCC1 [Compound R926499] | 0.56 |  | 
77 | CNC(=O)COc1cccc(Nc2ncc(F)c(Nc3ccc4c(c3)NCCO4)n2)c1 [Compound R920395] | 0.726 |  | 
